The record followed here is patent US11365177B2, “Chemical uncouplers of respiration and methods of use thereof” (Dana-Farber Cancer Institute, Inc., priority 2017, dated 2022).

Each structure is given as a SMILES string.

Series [1] relates to C2C12 cells. In words: Measurement of cellular respiration (Seahorse), uncoupling bioactivity. Format: cell-based. The settings on record: Mus musculus, Table 5, cyclic head groups, 50 μM compound, maximal increase versus basal oligomycin-treated respiration, means SEM, n=3-6/group, read-out: % stimulation of respiration (baseline = 100%). Here is the method: Oligomycin was purchased from EMD Millipore, and FCCP and rotenone were purchased from Sigma. C2C12 cells were seeded at 35,000 cells/well in an XF24 cell culture microplate (V7-PS, Seahorse Bioscience) and analyzed the following day. On the day of analysis, the cells were washed once with Seahorse respiration buffer (8.3 g/l DMEM, 1.8 g/l NaCl, 1 mM pyruvate, 20 mM glucose, pen/strep), placed in 0.5 ml Seahorse respiration buffer, and incubated in a CO2-free incubator for 1 h. Port injection solutions were prepared as follows (final concentrations in assay in parentheses): 10 μM oligomycin (1 μM final), 500 μM indicated compound (50 μM final), 2 μM FCCP (0.2 μM final), and 30 μM rotenone (3 μM final). The Seahorse program was run as follows: basal measurement, 3 cycles; inject port A (oligomycin), 3 cycles; inject port B (compounds), 8 cycles; inject port C (FCCP), 3 cycles; inject port D (rotenone), 3 cycles. Each cycle consisted of mix 2 min, wait 0 min, and measure 2 min. For data expressed as a percentage of oligomycin-treated basal, the respiration at cycle 6 was normalized to 100%, and the maximum respiration at any time point between cycles 7 and 15 inclusive was used.
Tables 1-4 show uncoupling bioactivity of compounds of the disclosure with different fatty acid side chains. Respiration in C2C12 cells is shown as maximal increases versus basal oligomycin-treated respiration, which is normalized to 100%. Data are shown as means SEM, n=3-6/group.

Series [2] addresses T1, mPM20D1 (Mus musculus, UniProt Q8C165).
T1 construct: host or cells: 293T cells (secreted into serum-free conditioned media)
T1 sequence (Q8C165 25-503): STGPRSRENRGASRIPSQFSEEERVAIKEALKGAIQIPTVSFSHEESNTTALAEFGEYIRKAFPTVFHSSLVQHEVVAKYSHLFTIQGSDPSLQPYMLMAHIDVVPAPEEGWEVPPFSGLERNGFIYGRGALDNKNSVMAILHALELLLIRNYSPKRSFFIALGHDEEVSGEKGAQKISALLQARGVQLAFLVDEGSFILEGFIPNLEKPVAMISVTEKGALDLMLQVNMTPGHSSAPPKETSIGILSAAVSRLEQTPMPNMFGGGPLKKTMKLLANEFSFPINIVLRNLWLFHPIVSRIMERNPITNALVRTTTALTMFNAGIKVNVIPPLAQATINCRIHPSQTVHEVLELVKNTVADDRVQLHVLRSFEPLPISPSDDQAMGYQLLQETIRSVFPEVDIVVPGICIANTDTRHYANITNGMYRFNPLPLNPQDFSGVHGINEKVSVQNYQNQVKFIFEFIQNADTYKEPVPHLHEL
As to the kind of experiment: PM20D1 hydrolysis assay. Format: in vitro ADME, murine. The settings on record: 10 nmol compound in 100 μl PBS, mPM20D1, 1 h at 37° C., LC-MS; FIG. 2. Here is the method:
Three 10 cm plates of 293T cells were transiently transfected with murine PM20D1-6×His-Flag plasmid (Addgene plasmid #84566) using PolyFect according to the manufacturer's instructions. After 48 h, cells were washed twice in PBS and switched to serum free DMEM with penicillin and streptomycin. Serum free conditioned media was collected 24 h later and concentrated ˜10-fold in 30 kDa MWCO filters (EMD Millipore) according to the manufacturer's instructions. The concentrated media was centrifuged to remove debris (600×g, 10 min, 4° C.) and the supernatant containing PM20D1-flag was decanted into a new tube. PM20D1-flag was immunoaffinity purified overnight at 4° C. from the concentrated media using magnetic Flag-M2 beads (Sigma Aldrich). The beads were collected, washed three times in PBS, eluted with 3× Flag peptide ([…] in PBS, Sigma Aldrich), aliquoted, and stored at −80° C.
10 nmol of the indicated compound was incubated in 100 μl PBS (100 VM initial substrate). Reactions were initiated by the addition of PBS or mPM20D1 (5 μl). After 1 h at 37° C., reactions were quenched with […] of a 2:1 v/v mixture of chloroform and methanol with 10 nmol d31-palmitate as an internal standard. The reactions were vortexed and the organic layer was transferred to a sample vial for analysis by LC-MS. For separation of polar metabolites, normal-phase chromatography was performed with a Luna-[…] NH2 column (50 mm×4.60 mm, Phenomenex). Mobile phases were as follows: Buffer A, acetonitrile; Buffer B, 95:5 water/acetonitrile with 0.1% formic acid or 0.2% ammonium hydroxide with 50 mM ammonium acetate for positive and negative ionization mode, respectively. The flow rate for each run started at 0.2 ml/min for 2 min, followed by a gradient starting at 0% B and increasing linearly to 100% B over the course of 15 min with a flow rate of 0.7 ml/min, followed by an isocratic gradient of 100% B for 10 min at 0.7 ml/min before equilibrating for 5 min at 0% B with a flow rate of 0.7 ml/min. MS analysis was performed with an electrospray ionization (ESI) source on an Agilent 6430 QQQ LC-MS/MS. The capillary voltage was set to 3.5 kV, and the fragmentor voltage was set to 100 V. The drying gas temperature was 325° C., the drying gas flow rate was 10 l/min, and the nebulizer pressure was 45 psi. Monitoring of hydrolysis starting materials and products was performed by scanning a mass range of m/z 50-1200. Peaks corresponding to the liberated fatty acids (products) or the intact starting material was integrated.

Series [3] is described as follows: Liver microsome stability assay. Conditions: mouse liver microsomes 1 mg/mL, 1 μM compound, NADPH, pH 7.4, 37 C; FIG. 3. The class given is in vitro ADME. Here is the method:
The compounds were evaluated in a mouse liver microsome assay.
Microsome stability was evaluated by incubating 1 μM test compound with 1 mg/mL hepatic microsomes in 100 mM KPi, pH 7.4 at 37 C with shaking. The reaction was initiated by adding NADPH (1 mM final concentration). Aliquots were removed at 0, 5, 10, 20, 40, and 60 minutes and added to acetonitrile (5× v:v) to stop the reaction and precipitate the protein. NADPH dependence of the reaction was evaluated with -NADPH samples. At the end of the assay, the samples were centrifuged through a Millipore Multiscreen Solvinter 0.45 micron low binding PTFE hydrophilic filter plate and analyzed by LC-MS/MS. Data is log transformed and represented as half-life.

A short description of series [4]: Plasma concentration after compound administration in DIO mice. Conditions: 10 mg/kg, 1 hour after administration, FIG. 5. Format: in vivo. Here is the method:
DIO mice (19 weeks, males, stock #380050) were purchased from The Jackson Laboratory. Prior to compound administration, mice were mock injected with vehicle (18:1:1 v/v/v saline:DMSO:Kolliphor EL) for 4 days. Compounds 33 and 37 were prepared in the same vehicle and administered at 10 mg/kg doses. Plasma concentration was measured 1 hour after compound administration.

The test system of series [5] is DIO mice. In words: Treatment of DIO mice with compound: body weight and food intake. Format: in vivo. Here is the method:
DIO mice (19 weeks, males, stock #380050) were purchased from The Jackson Laboratory. Mice were maintained on a high fat diet for the duration of the experiment (60% fat, Research Diets). Prior to compound administration, mice were mock injected with vehicle (18:1:1 v/v/v saline:DMSO:Kolliphor EL, intraperitoneal) for 4 days. Compound 33 was prepared in the same vehicle and administered at 5 μl/g body weight at the indicated doses. Administration of vehicle of compound occurred once per day. Data shown in FIG. 4A compared changes in body weights of representative mice at day 7 versus initial weight on day 0. Data shown in FIG. 4B represented average food intake per mouse over the 7 day dosing period for each treatment group.

As for `CCCCC/C=C\C/C=C\CCCCCCCC(=O)N1Cc2ccccc2[C@H]1C(=O)O` [Compound 36, (S)-2-((9Z,12Z)-Octadeca-9,12-dienoyl)isoindoline-1-carboxylic acid], the activity at 50 µM in series [1] is 185 ± 18%. Further, the “hydrolysis by PM20D1” value in series [2] is listed as “entirely resistant to hydrolysis by PM20D1”. The “microsome stability (in vitro half-life)” value in series [3] is “long in vitro half-lives”.
Take `CCCCC/C=C\C/C=C\CCCCCCCC(=O)N1Cc2ccccc2[C@@H]1C(=O)O` [Compound 37, (R)-2-((9Z,12Z)-Octadeca-9,12-dienoyl)isoindoline-1-carboxylic acid]: the activity at 50 µM in series [1] turned out to be 190 ± 12%. Besides, the “hydrolysis by PM20D1” value in series [2] is recorded as “entirely resistant to hydrolysis by PM20D1”. For the same compound, the “microsome stability (in vitro half-life)” value in series [3] is given as “long in vitro half-lives”. In addition, the “pharmacokinetic properties in vivo (plasma concentration)” value in series [4] is on record as “augmented pharmacokinetic properties in vivo”.
For `CCCCCCCC/C=C\CCCCCCCC(=O)N1Cc2ccccc2[C@H]1C(=O)O` [Compound 33, (S)-2-Oleoylisoindoline-1-carboxylic acid], in series [1], the activity at 50 µM came to 240 ± 24%. In addition, the “hydrolysis by PM20D1” value in series [2] is reported as “entirely resistant to hydrolysis by PM20D1”. For the same compound, in series [3], the “microsome stability (in vitro half-life)” value was “long in vitro half-lives”. Further, the “uncoupling bioactivity in vivo” value in series [5] (DIO mice on high fat diet, intraperitoneal, once per day) is on record as “possesses uncoupling bioactivity in vivo”. Also, in series [5] (DIO mice, different treatment groups, 7 day dosing period, FIG. 4B), the “average food consumed per mouse per day” value is recorded as “consumed the same amount of food per mouse per day”. The “change in body weight from the initial weight” value in series [5] (DIO mice, higher doses, once per day, day 7 versus day 0, FIG. 4A) was “statistically significant weight loss over time”. For the same compound, in series [4], the “pharmacokinetic properties in vivo (plasma concentration)” value was “augmented pharmacokinetic properties in vivo”.
Regarding `CCCCCCCC/C=C\CCCCCCCC(=O)N1Cc2ccccc2[C@@H]1C(=O)O` [Compound 34, (R)-2-Oleoylisoindoline-1-carboxylic acid], the activity at 50 µM in series [1] was found to be 190 ± 12%. In addition, the “hydrolysis by PM20D1” value in series [2] was “entirely resistant to hydrolysis by PM20D1”. The “microsome stability (in vitro half-life)” value in series [3] is given as “long in vitro half-lives”.
